From PubChem BioAssay AID328 (DTP/NCI, 2004)
Values joined by “and” are separate entries in the source; they are usually repeats but may differ in a detail not shown here. Equal entries are not always repeated. Inconclusive results and toxic doses are left out. How the source made its calls: active means survival T/C of 150% or more; inactive means T/C below 125% in these data.

Test system: BDF1 mice, P388 leukemia ip, median survival T/C
Assay: NCI In Vivo Anticancer Drug Screen. Data for tumor model P388 Leukemia (intraperitoneal) in B6D2F1 (BDF1) mice
Settings: endpoint: median survival time, higher = longer survival
Outline: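 Mice carrying the transplantable tumour receive compound or vehicle. Survival is followed in each arm, and the treated measure is divided by the vehicle measure.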

[1] = dose: 50.0 mg/kg/injection, schedule: Q01DX009 (ip), vehicle: Klucel (hydroxypropylcellulose) (HPC)
[2] = dose: 100.0 mg/kg/injection, schedule: Q01DX009 (ip), vehicle: Klucel (hydroxypropylcellulose) (HPC)
[3] = dose: 50.0 mg/kg/injection, schedule: Q04DX003 (ip), vehicle: saline
[4] = dose: 100.0 mg/kg/injection, schedule: Q04DX003 (ip), vehicle: saline
[5] = dose: 200.0 mg/kg/injection, schedule: Q04DX003 (ip), vehicle: saline
[6] = dose: 100.0 mg/kg/injection, schedule: Q01DX009 (ip), vehicle: saline with Tween-80
[7] = dose: 100.0 mg/kg/injection, schedule: Q04DX003 (ip), vehicle: saline with Tween-80
[8] = dose: 200.0 mg/kg/injection, schedule: Q01DX009 (ip), vehicle: saline with Tween-80
[9] = dose: 200.0 mg/kg/injection, schedule: Q04DX003 (ip), vehicle: saline with Tween-80
[10] = dose: 400.0 mg/kg/injection, schedule: Q04DX003 (ip), vehicle: saline with Tween-80
[11] = dose: 50.0 mg/kg/injection, schedule: Q01DX009 (ip), vehicle: saline with Tween-80
[12] = dose: 400.0 mg/kg/injection, schedule: Q01DX009 (ip), vehicle: saline with Tween-80

Measured: T/C

CC1(C)CCSC(/C=C/c2ccccc2)=N1
inactive: [1] 103 % of control | [2] 121 % of control

O=C(Nc1cccc(C(F)(F)F)c1)Nc1c(Oc2ccc(Cl)c(Cl)c2)ccc(Cl)c1S(=O)(=O)O
inactive: [3] 90 % of control | [4] 100 % of control | [5] 113 % of control

CCCCCCCCCCCCCSCCCCCCCCCCCCSCCCCCCCCCCCC
inactive: dose: 100.0 mg/kg/injection, schedule: Q01DX001 (ip), vehicle: saline sonified 86 % of control | dose: 200.0 mg/kg/injection, schedule: Q01DX001 (ip), vehicle: saline sonified 86 % of control | dose: 400.0 mg/kg/injection, schedule: Q01DX001 (ip), vehicle: saline sonified 90 % of control

C/C(=N/N(C)C)c1ccccn1
inactive: [6] 103 % of control | [7] 104 % of control | [8] 100 % of control | [9] 100 % of control | [10] 100 % of control

c1coc(-c2ncnc3c2Cc2ccccc2-3)c1
inactive: dose: 25.0 mg/kg/injection, schedule: Q01DX009 (ip), vehicle: Klucel (hydroxypropylcellulose) (HPC) 100 % of control | [1] 118 % of control | [2] 109 % of control | dose: 150.0 mg/kg/injection, schedule: Q01DX009 (ip), vehicle: Klucel (hydroxypropylcellulose) (HPC) 91 % of control

COc1ccc(CC(=O)Cc2ccc(OC)c(OC)c2)cc1OC
inactive: dose: 25.0 mg/kg/injection, schedule: Q01DX009 (ip), vehicle: saline with Tween-80 104 % of control | [11] 113 % of control | [6] 113 % of control and 123 % of control | [7] 109 % of control | [8] 95 % of control and 120 % of control | [9] 104 % of control | [12] 118 % of control | [10] 90 % of control

CC(=O)Nc1ccc(S(=O)(=O)c2ccc([N+](=O)[O-])cc2)cc1
inactive: dose: 50.0 mg/kg/injection, schedule: Q04DX003 (ip), vehicle: saline with Tween-80 101 % of control | [7] 106 % of control | [9] 105 % of control | [10] 99 % of control

COC(=O)C(CSCSC)NC(=O)Nc1ccc(F)cc1 (stereo not drawn)
inactive: [6] 100 % of control | [7] 100 % of control | [8] 100 % of control | [9] 95 % of control | [12] 109 % of control | [10] 90 % of control

NC(N)=Nc1ccc(F)cc1
inactive: [11] 110 % of control | [6] 95 % of control | [8] 90 % of control

CCN(CC)c1ccc(NC(=O)Nc2ccccc2C)cc1
inactive: [7] 95 % of control | [9] 95 % of control | [10] 90 % of control

COC(=O)C(Br)C(OC)c1ccccc1 (stereo not drawn)
inactive: [2] 91 % of control | dose: 200.0 mg/kg/injection, schedule: Q01DX009 (ip), vehicle: Klucel (hydroxypropylcellulose) (HPC) 95 % of control | dose: 400.0 mg/kg/injection, schedule: Q01DX009 (ip), vehicle: Klucel (hydroxypropylcellulose) (HPC) 95 % of control

O=C(NCCCl)N(CCCl)C(=O)Oc1c(Cl)cc(Cl)cc1Cl
inactive: dose: 50.0 mg/kg/injection, schedule: Q01DX005 (ip), vehicle: saline with Tween-80 100 % of control | dose: 100.0 mg/kg/injection, schedule: Q01DX005 (ip), vehicle: saline with Tween-80 112 % of control | dose: 200.0 mg/kg/injection, schedule: Q01DX005 (ip), vehicle: saline with Tween-80 100 % of control

OCC1OC(n2ccc3c2ncn2ccnc32)C(O)C1O (stereo not drawn)
inactive: dose: 25.0 mg/kg/injection, schedule: Q04DX003 (ip), vehicle: saline 110 % of control | [3] 102 % of control | [4] 96 % of control | [5] 102 % of control

c1ccc(C23c4ccccc4C(=NC4CCCCC4)C2N3C2CCCCC2)cc1 (stereo not drawn)
inactive: dose: 100.0 mg/kg/injection, schedule: Q04DX003 (ip), vehicle: Klucel (hydroxypropylcellulose) (HPC) 90 % of control | dose: 200.0 mg/kg/injection, schedule: Q04DX003 (ip), vehicle: Klucel (hydroxypropylcellulose) (HPC) 100 % of control
